Assay results as given in patent publication US10632124B2, “Adrenoceptors antagonists for the prevention and treatment of neurodegenerative conditions” (Cedars-Sinai Medical Center, priority 2013, dated 2020).

Key:
[1] = in vivo; cited from earlier work
[2] = tested on: Parkinson's disease; conditions: in vivo; cited from earlier work
[3] = tested on: rectum, mid colon and distal colon; conditions: wild type rats, cited from earlier work
[4] = tested on: Parkinson's disease patient; assay: Case report of one Parkinson's disease patient; format: in vivo, human
Description: Low-dose beta-blocker therapy (carvedilol 6.25 mg BID) was started to treat anxiety avoiding the sedative effect of benzodiazepine.

[5] = current (oral) formulations; cited from earlier work
[6] = tested on: patients with a diagnosis of iPD; assay: Retrospective cross-sectional medical record analysis of 333 iPD patients: constipation; format: in vivo, human; conditions: for Constipation, % of patients / No Constipation, % of patients: by dopaminergic treatment
Text: The inventors conducted a retrospective, cross-sectional medical record analysis of 333 consecutive patients with a diagnosis of iPD seen in the Movement Disorders clinic of Cedars-Sinai Medical Center from October 2010 to March 2014. Demographic and clinical data, including vitals, motor and non-motor symptoms, dopaminergic medications, comorbidities and anti-hypertensive medications were collected at the initial consultation visit. All data were collected in an Excel database and analyzed by SPSS version 19.0 (SPSS, Inc., Chicago, Ill.). Continuous variables were expressed as mean±standard deviation and compared by the use of Student t test (normally distributed) or as median±interquartile range value and compared by the use of Mann-Whitney U test (not normally distributed), as appropriate. Normality of data distribution was evaluated using the Kolmogorov-Smirnov test. Categorical variables were expressed as proportion and compared by use of χ^2 test with risk ratios and 95% confidence intervals quoted. To determine the independent predictors of constipation, logistic regression analysis was performed. Variables achieving p<0.1 on univariate analysis were then included in a multivariate analysis. Statistical significance was accepted at p<0.05. […] Constipation was strongly associated with dopaminergic treatment. On the other hand, only 28/63 (44.4%) patients treated with beta-blockers reported constipation (Table 2).

SMILES: C=CCOc1ccccc1OCC(O)CNC(C)C (centres unmarked) [oxprenolol]
- passage of the blood-brain barrier [1]: pass the blood-brain barrier

SMILES: c1ccc2c(c1)OCC(C1=NCCN1)O2 (centres unmarked) [idaxozan]
- levodopa-induced dyskinesias [2]: could also be diminished

SMILES: CN1[C@@H]2CC[C@H]1C[C@@H](OC(=O)C(CO)c1ccccc1)C2 (some centres unmarked) [atropine]
- contractions induced by vagus nerve and pelvic nerve stimulation [3]: abolished

SMILES: CC(C)NCC(O)COc1ccc(CCOCC2CC2)cc1 (centres unmarked) [betaxolol]
- passage of the blood-brain barrier [1]: pass the blood-brain barrier

SMILES: CCCN[C@H]1CCc2nc(N)sc2C1 [pramipexole]
- tolerability ([4]; doses up to 1.5 mg TID): tolerated well

SMILES: CC(C)NCC(O)COc1ccc(COCCOC(C)C)cc1 (centres unmarked) [bisopropolol]
- passage of the blood-brain barrier [1]: pass the blood-brain barrier

SMILES: Cc1cc2c(OCC(CNC(C)(C)C)OC(=O)c3ccccc3)cccc2[nH]1 (centres unmarked) [bopindolol]
- passage of the blood-brain barrier [1]: pass the blood-brain barrier

SMILES: CC(C)NCC(O)COc1cccc2ccccc12 (centres unmarked) [propranolol]
- passage of the blood-brain barrier [1]: pass the blood-brain barrier
- relaxations induced by hypogastric nerve stimulation ([3]; rectum, mid colon, distal colon): abolished
- levodopa-induced dyskinesias [2]: could reduce levodopa-induced dyskinesias without worsening Parkinsonism

SMILES: COc1ccccc1OCCNCC(O)COc1cccc2[nH]c3ccccc3c12 (centres unmarked) [carvedilol]
- absorption [5]: rapid and complete
- average elimination half-life [5]: about 8 hours
- anxiety, constipation and sleep ([4]; 6.25 mg BID): improved dramatically
- GI symptoms (abdominal bloating and constipation) ([4]; restarted at the same dose after self-discontinuation): virtually immediate resolution
- passage of the blood-brain barrier [1]: pass the blood-brain barrier

SMILES: NC12CC3CC(CC(C3)C1)C2 [Amantadine]
- OR of constipation, univariate logistic regression [6]: 1.528

SMILES: CCC1(c2c[nH]cn2)Cc2ccc(F)cc2C1 (centres unmarked) [fipemazole]
- levodopa-induced dyskinesias [2]: could also be diminished

SMILES: CC(C)(C)NC[C@H](O)COc1nsnc1N1CCOCC1 [timolol]
- passage of the blood-brain barrier [1]: pass the blood-brain barrier

SMILES: N[C@@H](Cc1ccc(O)c(O)c1)C(=O)O [Levodopa, levodopa]
- motor symptoms ([4]; Sinemet 25/100 TID added to pramipexole): almost complete resolution of motor symptoms
- Constipation, % of patients ([6]; Betablockers): 60.0%
- No Constipation, % of patients ([6]; Betablockers): 40.0%
- Constipation, % of patients ([6]; No Betablockers): 71.7%
- No Constipation, % of patients ([6]; No Betablockers): 28.3%
- OR of constipation, multivariate logistic regression ([6]; multivariate incl. age, gender, PD duration, levodopa, dopamine-agonists, beta-blockers): 2.077
- OR of constipation, univariate logistic regression [6]: 2.659

SMILES: CC(C)(C)NCC(O)COc1cccc2c1CC(O)C(O)C2 (centres unmarked) [nadolol]
- resting, postural, and action tremor in Parkinson's disease [2]: can be diminished
